In patent EP0316592A2, “3'-Fluoro-2',3'-dideoxyuridine, and its therapeutic application” (Stichting REGA V.Z.W., priority 1987, dated 1989):
Read-outs that look alike come from different tables or passages of the source.

Experiments:
C3H cells = assay: Cytotoxicity for C3H cells (alteration of normal cell morphology); format: cell-based, mouse; details: alteration of normal cell morphology, C3H cells
MOLT/4F CELL DNA = assay: Incorporation of radiolabelled precursors into Molt/4F cell DNA; format: cell-based, human; details: for IC50: Homo sapiens, Molt/4F cell DNA, 20-24 hours; for stimulatory effect on (5-3H)dCyd incorporation into DNA: as compared to the control
Procedure: The impact of ddUrd and the 3′-fluoro- and 3′-azido-substituted pyrimidine 2′,3′-dideoxynucleoside analogues on cellular DNA biosynthesis was evaluated by monitoring the effect of these compounds on the incorporation of radio- labelled (1′,2′-³H)dUrd (specific radioactivity 27 Ci/mmol), (methyl-³H)dThd (specific radioactivity […]) and (5-³H)dCyd (specific radioactivity 20 Ci/mmol) into DNA of Molt/4F cells.
The incorporation of radiolabelled precursors into Molt/4F cellular DNA was measured in microtest III plates (96 wells) (Flacon) as previously described (J. Balzarini et al, Mol. Pharmacol. 23, 175-181 (1983)). Shortly, to each well of the microplate were added 10⁵ Molt/4F cells and 0.25 µCi of (1′,2′-³H)dUrd, (methyl³H)dThd or (5-³H)dCyd. The cells were allowed to proliferate for 20-24 hours at 37°C in a humidified CO₂-controlled atmosphere. At the end of this incubation period, the contents of the wells (200 µ1) were brought onto 25-mm glass-fibre filters (type A/E, Gelman Instrument Company, Ann Arbor, Mich., USA) and washed twice with cold phosphate-buffered saline, twice with cold 10% trichloroacetic acid (TCA), twice with cold 5% TCA, once with ethanol and once with ether. The filters were then assayed for radioactivity in a toluene-based scintillant.

[1] = tested on: Moloney murine sarcoma virus (MSV); assay: Inhibition of transformation of C3H cells by MSV; format: cell-based; details: for EC50: Moloney murine sarcoma virus, 144 h, 50% reduction of transformation of C3H cells by MSV, 6 days, read-out: MSV-induced cyto-pathogenicity ED50; for MSV-induced cyto-pathogenicity S.I.: Selectivity index or ratio of CD50 to ED50, C3H cells
Procedure: Moloney murine sarcoma virus (MSV) was prepared from tumors induced by in vivo infection of 10 day-old NMRI mice according to the procedure described by De Clercq et al (Proc. Soc. Exp. Biol. Med. 137, 590-594 (1971)).
ddUrd and the substituted pymiridine 2′,3′-dideoxynucleoside analogues were examined for their inhibitory effect on the transformation of mouse embryo C3H fibroblasts by Moloney murine sarcoma virus (MSV).
C3H cells were seeded at 20,000 cells per ml into wells of Costar Tissue Culture Cluster plates (48 wells per plate) and grown to confluency. Cell cultures were then infected by 150 foci-forming units of MSV during 90 min, whereafter the culture medium was replaced by 1 ml fresh medium containing different concentrations of the test compound. After 6 days, the transformation of the cell cultures was examined microscopically.

MT4 cells = assay: Cytotoxicity for non-infected MT4 cells (viable cell count); details: 50% reduction of viable cells in non-infected MT4 cell cultures, 5 days
Procedure: Then 100 µl of the infected cell suspension was added to 100 µl of an appropriate dilution of test compound in 200 µ1 wells of a Flat Bottom Microtest III Plate (Falcon, Becton Dickinson, Oxnard, CA, USA) (i.e. 40 CCID₅₀ HIV/200 µ1 well/5 x 10⁴ cells), and further incubated at 37°C in a CO₂-controlled humidified atmosphere.

Raji/TK- = assay: Cytostatic effect (cell proliferation, Coulter count); format: cell-based; details: Homo sapiens, cell number reduced by 50%, 68-72 hours, read-out: ID50 Raji/TK-
Procedure: (§1) Raji/0 cells and Raji/TK⁻ (a thymidine (dThd) kinasedeficient mutant cell line derived from wild-type Raji/0 cells, were grown in 75 cm² plastic tissue culture flasks (International Medical, Brussels, Belgium), in Eagle's minimal essential medium, supplemented with 10% (v/v) inactivated foetal calf serum (Gibco, Glasgow, Scotland, U.K.), 2 mM L-glutamine (Flow Laboratories, Irvine, Scotland, U.K.) and 1% THM (5 mM Tes, 7.5 mM Hepes and 5 mM (MOPS) buffer ([…]). The Raji/0 and Raji/TK⁻ cells were characterized according to J. Balzarini et al (Biochem. Pharmacol. 31, 1089-1095 (1982)). Molt/4F, CEM and H9 cells were grown in Eagle's minimal essential medium, supplemented with 10% (v/v) inactivated foetal calf serum and 2 mM L-glutamine. MT4 cells were cultivated in RPMI 1640 medium (Gibco) containing 20 mM Hepes buffer, 10% (v/v) inactivated foetal calf serum (Gibco) and 2 mM L-glutamine (Flow Laboratories).
(§2) All assays were performed in flat bottom Microtest III Plates (96 wells) (Falcon) as previously described by E. De Clercq et al (Mol. Pharmacol. 19, 321-330 (1981)). Briefly, the cells were suspended in growth medium and added to the microplate wells at a density of 7.5 x 10⁴ cells/well (200 µ1) in the presence of varying concentrations of the test compounds. The cells were then allowed to proliferate for 68-72 hours at 37°C in a humidified, CO₂-controlled atmosphere. At the end of the incubation period, the cells were counted with a Coulter Counter (Coulter Electronics Ltd., Harpenden Herts, U.K.). The 50% inhibitory dose (ID₅₀) was defined as the concentration of compound that reduced the number of cells by 50%.

H9 = assay: as above; format: cell-based; details: Homo sapiens, cell number reduced by 50%, 68-72 hours, read-out: ID50 H9
Procedure: as §1, §2

Molt/4F = assay: as above; format: cell-based; details: Homo sapiens, cell number reduced by 50%, 68-72 hours, read-out: ID50 Molt/4F
Procedure: as §1, §2

MT4 = assay: as above; format: cell-based; details: Homo sapiens, cell number reduced by 50%, 68-72 hours, read-out: ID50 MT4
Procedure: as §1, §2

CEM = assay: as above; format: cell-based; details: Homo sapiens, CCRF-CEM; cell number reduced by 50%, 68-72 hours; read-out: ID50 CEM
Procedure: as §1, §2

Raji/0 = assay: as above; format: cell-based; details: Homo sapiens, cell number reduced by 50%, 68-72 hours, read-out: ID50 Raji/0
Procedure: as §1, §2

Molt/4F cells = assay: Tritium release from (5-3H)dUrd or (5-3H)dCyd in intact Molt/4F cells; format: cell-based; details: Homo sapiens
Procedure: Briefly, 10⁷ Molt/4F cells/ml were preincubated with an appropriate amount of test compound for 15 min at 37°C. After this incubation period, radiolabelled (5-³H)dUrd or (5-³H)dCyd (100 µCi/ml; 0.1 µM) were added, and at various times (0, 15, 30, 45, 60 min), 100 µl of the reaction mixture was withdrawn, and mixed with 500 µl of a cold suspension of carbon black (100 mg/ml) in 5% TCA. After centrifugation at 1000 g for 10 min, the supernatants were analysed for radioactivity.

[2] = read-out: ID50 (1',2'-3H)dUrd incorporation
[3] = read-out: ID50 (5-3H)dCyd incorporation
[4] = read-out: ID50 (methyl-3H)dThd incorporation
[5] = read-out: ID50 tritium release from (5-3H)dCyd
[6] = read-out: ID50 tritium release from (5-3H)dUrd

Compound | MSV-induced cyto-pathogenicity CD50 (C3H cells) | IC50 (MOLT/4F CELL DNA; [2]) | IC50 (MOLT/4F CELL DNA; [3]) | IC50 (MOLT/4F CELL DNA; [4]) | EC50 [1] | HIV-induced cyto-pathogenicity CD50 (MT4 cells) | IC50 (Raji/TK-) | IC50 (H9) | IC50 (Molt/4F) | IC50 (MT4) | IC50 (CEM) | IC50 (Raji/0) | IC50 (Molt/4F cells; [5]) | IC50 (Molt/4F cells; [6]) | MSV-induced cyto-pathogenicity S.I. [1] | stimulatory effect on (5-3H)dCyd incorporation into DNA (MOLT/4F CELL DNA; at 200 µM) | stimulatory effect on (5-3H)dCyd incorporation into DNA (MOLT/4F CELL DNA; at 1000 µM)
CCc1cn([C@H]2C[C@H](N=[N+]=[N-])[C@@H](CO)O2)c(=O)[nH]c1=O [AzddEtUrd, 3′-azido-2′,3′-dideoxy-5-ethyluridine] | >200 µM | > 1 mM | > 1 mM | > 1 mM | > 200 µM | 418 µM | > 1 mM | > 1 mM | > 1 mM | 160 µM | > 1000 µM | > 1 mM | > 250 µM | 51 µM |  |  | 
[N-]=[N+]=N[C@H]1C[C@H](n2ccc(=O)[nH]c2=O)O[C@@H]1CO [AzddUrd, 3′-azido-2′,3′-dideoxyuridine] | >400 µM | 0.172 mM | 0.725 mM | > 1 mM | 15 µM | 244 µM | > 1 mM | > 1 mM | > 1 mM | 364 µM | 423 µM | ≥ 1 mM | > 250 µM | 20 µM | >27 |  | 
Nc1ccn([C@H]2C[C@H](F)[C@@H](CO)O2)c(=O)n1 [FddCyd, 3′-fluoro-2′,3′-dideoxycytidine] | >400 µM | 0.0273 mM | > 1 mM | > 1 mM | 284 µM | 26 µM | 0.118 mM | > 1 mM | 0.024 mM | > 1000 µM | 7 µM | 0.095 mM |  |  | > 1.2 | 1.7 fold | 2 fold
CCc1cn([C@H]2C[C@H](F)[C@@H](CO)O2)c(=O)[nH]c1=O [FddEtUrd, 3′-fluoro-2′,3′-dideoxy-5-ethyluridine] | >400 µM | > 1 mM | > 1 mM | > 1 mM | > 400 µM | >625 µM | > 1 mM | > 1 mM | > 1 mM | > 1000 µM | > 1000 µM | > 1 mM |  | > 250 µM |  |  | 
O=c1ccn([C@H]2C[C@H](F)[C@@H](CO)O2)c(=O)[nH]1 [FddUrd, 3′-fluoro-2′,3′-dideoxyuridine] | >400 µM | 0.016 mM | > 1 mM | > 1 mM | > 400 µM | 16 µM | > 1 mM | > 1 mM | ≥ 1 mM | > 1000 µM | 14 µM | > 1 mM | > 250 µM | 126 µM |  |  | 
Nc1ccn([C@H]2CC[C@@H](CO)O2)c(=O)n1 [ddCyd, 2′,3′-Dideoxycytidine] | >400 µM | 0.032 mM | > 1 mM | 0.753 mM | 25 µM | 40 µM | 0.028 mM | 0.243 mM | 0.007 mM | ≥ 1000 µM | 6 µM | 0.023 mM |  |  | >16 | 1.7 fold | 2 fold
CCc1cn([C@H]2CC[C@@H](CO)O2)c(=O)[nH]c1=O [ddEtUrd, 2′,3′-Dideoxy-5-ethyluridine] | >400 µM | > 1 mM | > 1 mM | > 1 mM | > 400 µM | >625 µM | > 1 mM | > 1 mM | > 1 mM | 326 µM | > 1000 µM | > 1 mM |  | > 250 µM |  |  | 
